# Experiment: Stability of Compound (1) in nonionic surfactant solution (content retention rate, liquid chromatography)
# Format: physicochemical
# Conditions: aqueous solution in glass ampoule stored at 25° C. for 1 month (1M)
# Experimental: As used herein, the term “stability” refers to the degree to which the content of (E)-2-(7-trifluoromethylchroman-4-ylidene)-N-(7-hydroxy-5,6,7,8-tetrahydronaphthalen-1-yl)acetamide, or a pharmaceutically acceptable salt or solvate thereof, dissolved and/or suspended in an aqueous suspension is maintained without being altered by decomposition or the like after storage for a certain period of time. In addition, as used herein, the “stability” is evaluated by the content maintenance ratio, which is the ratio of the content of (E)-2-(7-trifluoromethylchroman-4-ylidene)-N-(7-hydroxy-5,6,7,8-tetrahydronaphthalen-1-yl)acetamide, or a pharmaceutically acceptable salt or solvate thereof, in the aqueous suspension agent stored for a certain period after preparation to the content of (E)-2-(7-trifluoromethylchroman-4-ylidene)-N-(7-hydroxy-5,6,7,8-tetrahydronaphthalen-1-yl)acetamide, or a pharmaceutically acceptable salt or solvate thereof, in the aqueous suspension agent immediately after preparation. Typically, this evaluation is determined by evaluating the content retention rate of (E)-2-(7-trifluoromethylchroman-4-ylidene)-N-(7-hydroxy-5,6,7,8-tetrahydronaphthalen-1-yl)acetamide, or a pharmaceutically acceptable salt or solvate thereof, dissolved in the aqueous suspension agent. […]
smiles,measurement,value
"O=C(/C=C1\CCOc2cc(C(F)(F)F)ccc21)Nc1cccc2c1C[C@H](O)CC2 [Compound (1), (E)-2-(7-trifluoromethylchroman-4-ylidene)-N-((7R)-7-hydroxy-5,6,7,8-tetrahydronaphthalen-1-yl)acetamide]",content retention rate (to display ratio %),100%
